Columns and labels:
SHP2 = biological target: T1, SHP2 (Homo sapiens, UniProt Q06124); test: SHP2 biochemical assay (DiFMUP conversion); details: 10 pM SHP2, 0.25 μM pIRS1 peptide, 50 μM DiFMUP
T1 sequence (Q06124 1-593): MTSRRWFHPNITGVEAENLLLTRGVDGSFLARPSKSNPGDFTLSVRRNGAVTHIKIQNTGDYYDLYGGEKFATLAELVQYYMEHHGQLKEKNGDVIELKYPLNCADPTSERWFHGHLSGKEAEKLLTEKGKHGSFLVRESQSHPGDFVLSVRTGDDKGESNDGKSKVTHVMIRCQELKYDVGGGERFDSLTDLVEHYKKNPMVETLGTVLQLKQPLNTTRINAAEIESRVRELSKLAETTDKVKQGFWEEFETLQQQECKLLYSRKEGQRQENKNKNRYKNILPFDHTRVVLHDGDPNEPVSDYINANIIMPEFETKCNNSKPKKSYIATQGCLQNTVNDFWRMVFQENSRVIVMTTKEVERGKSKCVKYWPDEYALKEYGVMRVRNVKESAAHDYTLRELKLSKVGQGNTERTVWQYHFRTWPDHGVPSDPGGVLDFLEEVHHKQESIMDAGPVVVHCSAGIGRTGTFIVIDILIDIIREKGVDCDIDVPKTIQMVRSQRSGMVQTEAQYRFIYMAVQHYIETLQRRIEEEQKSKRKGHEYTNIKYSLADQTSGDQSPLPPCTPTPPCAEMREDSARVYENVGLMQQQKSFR
Description: (1) SHP2 Biochemical Assay SHP2 Activity was Monitored by Measuring the Conversion of the Surrogate Substrate 6,8-Difluoromethylumbelliferyl Phosphate (DiEMUP) to the Fluorescent Product, 6,8-Difluoromethylumbelliferone (DiFMU).
SHP2 was pre-incubated with test compounds and the activating peptide pIRS1 (H2N-LN(pY) IDLDLV-(PEG) 8-LST(pY)ASINFQK-amide) for 30 min, prior to addition of the 6,8-difluoromethylumbelliferyl phosphate (DiEMUP), (Thermo Fisher D6567). Final assay concentrations were 10 pM SHP2, 0.25 μM pIRS1 peptide, 50 μM DiFMUP, 25 mM Bis-Tris propane, pH 7.0, 150 mM NaCl, 0.05% (v/v) Tween-20, 0.5 mM TCEP and 5% (v/v) DMSO. Rates of reaction were then measured over 30 min by monitoring fluorescence on a BMG Pherastar reader at excitation 360 nm/emission 450 nm. IC50 values were calculated in singlicate from the normalized dose-response plots using four parameter logistic curve fit. The Experiment for each compound was carried out in one time or multiple times, and the IC50 values were shown as a single value (for a compound measured in a single experiment) or an average value (for a compound measured in multiple experiments).

MKN45 = test: Anti-proliferation assay (CellTiter-Glo 2.0), combination index, MKN45; type: cell-based
Method in brief: (§1)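 Cells were seeded at 500 cells/well in medium with 10% FBS and exposed to agents at 8 concentrations including 0 nM, for 3 days at 37° C under 5% CO2. Survival was read by CellTiter-Glo 2.0 luminescence, and combination index was determined at each combined concentration.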

NCI-H358 = test: Anti-proliferation assay (CellTiter-Glo 2.0), combination index, NCI-H358; type: cell-based
Method in brief: as §1

NCI-H23 = test: Anti-proliferation assay (CellTiter-Glo 2.0), combination index, NCI-H23; type: cell-based
Description: (§2) Cell lines were obtained from ATCC or Health Science Research Resources Bank.
Each cell lines were collected by ordinary method, then suspended in indicated medium containing 10% fetal bovine serum in table 3. The number of cells seeded per well was set to 500 cells/20 μL. […] The concentration of each anti-cancer reagents set to 8 concentrations including 0 nM. After adding the medicine to the cells, the cells were further incubated at 37° C. for 3 days under 5% CO2. Cell survival rates were calculated by adding 20 μL of CellTiter-Glo(registered trademark) 2. 0 (Promega) solution to each well, incubating the cells at room temperature for 10 minutes, and then measuring the chemiluminescence intensity of each well using a plate reader (ARVO).
(§3) A combination index (CI) value at each combined concentration of the medicines was determined.

MV-4-11 = test: Anti-proliferation assay (CellTiter-Glo 2.0), combination index, MV-4-11; type: cell-based
Description: as §2
(§4) 384 well culture plate (781086, Greiner Bio-One International) was used for cell survival rate measurement assay. Each cell lines were collected by ordinary method, then suspended in indicated medium containing 10% fetal bovine serum in table 3. The number of cells seeded per well was set to 500 cells/20 μL. After incubation at 37° C. for 24 hours under 5% CO2, Compound 1 and additional compound having an antitumor effect or a vehicle (DMSO) was added to each well by using D300e Digital Dispenser (Tecan). The concentration of Compound 1 was set to 10 concentrations. The concentration of each anti-cancer reagents set to 8 concentrations including 0 nM. After adding the medicine to the cells, the cells were further incubated at 37° C. for 3 days under 5% CO2. Cell survival rates were calculated by adding 20 μL of CellTiter-Glo(registered trademark) 2. 0 (Promega) solution to each well, incubating the cells at room temperature for 10 minutes, and then measuring the chemiluminescence intensity of each well using a plate reader (ARVO).
as §3

RMG-I = test: Anti-proliferation assay (CellTiter-Glo 2.0), combination index, RMG-I; type: cell-based
Description: as §2, §4, §3

[1] = Compound 1 1.52 + combination drug 41.2 nmol/L (1:27)
[2] = Compound 1 4.57 + combination drug 123 nmol/L (1:27)
[3] = Compound 1 13.7 + combination drug 370 nmol/L (1:27)
[4] = Compound 1 41.2 + combination drug 1110 nmol/L (1:27)
[5] = Compound 1 123 + combination drug 3330 nmol/L (1:27)
[6] = Compound 1 370 + combination drug 10000 nmol/L (1:27)
[7] = Compound 1 123 + combination drug 370 nmol/L (1:3)
[8] = Compound 1 370 + combination drug 1110 nmol/L (1:3)
[9] = Compound 1 1110 + combination drug 3330 nmol/L (1:3)
[10] = Compound 1 3330 + combination drug 10000 nmol/L (1:3)
[11] = Compound 1 41.2 + combination drug 123 nmol/L (1:3)
[12] = Compound 1 1.52 + combination drug 123 nmol/L (1:81)
[13] = Compound 1 4.57 + combination drug 370 nmol/L (1:81)
[14] = Compound 1 13.7 + combination drug 1110 nmol/L (1:81)
[15] = Compound 1 41.2 + combination drug 3330 nmol/L (1:81)
[16] = Compound 1 123 + combination drug 10000 nmol/L (1:81)

## Cn1nc2ccc(-c3n[nH]c4nc(N5C[C@H]6CC[C@@H]5[C@@H]6N)n(C)c(=O)c34)c(Cl)c2c1Cl [Compound 2, 6-((1R,4R,7R)-7-amino-2-azabicyclo[2.2.1]heptan-2-yl)-3-(3,4-dichloro-2-methyl-2H-indazol-5-yl)-5-methyl-1,5-dihydro-4H-pyrazolo[3,4-d]pyrimidin-4-one]
SHP2
  IC50: 2.6 nM

## Cn1cc2c(Cl)c(-c3c[nH]c4nc(N5C[C@H]6CC[C@@H]5[C@@H]6N)n(C)c(=O)c34)ccc2n1 [Compound 4, 2-((1R,4R,7R)-7-amino-2-azabicyclo[2.2.1]heptan-2-yl)-5-(4-chloro-2-methyl-2H-indazol-5-yl)-3-methyl-3,7-dihydro-4H-pyrrolo[2,3-d]pyrimidin-4-one]
SHP2
  IC50: 3.7 nM

## Cn1nc2ccc(-c3c[nH]c4nc(N5C[C@H]6CC[C@@H]5[C@@H]6N)n(C)c(=O)c34)c(Cl)c2c1Cl [Compound 5, 2-((1R,4R,7R)-7-amino-2-azabicyclo[2.2.1]heptan-2-yl)-5-(3,4-dichloro-2-methyl-2H-indazol-5-yl)-3-methyl-3,7-dihydro-4H-pyrrolo[2,3-d]pyrimidin-4-one]
SHP2
  IC50: 1.5 nM

## Cn1nc2ccc(-c3c[nH]c4nc(N5[C@H]6CC[C@@H]5[C@H](N)C6)n(C)c(=O)c34)c(F)c2c1Cl [Compound 6, 2-((1R,2R,4S)-2-amino-7-azabicyclo[2.2.1]heptan-7-yl)-5-(3-chloro-4-fluoro-2-methyl-2H-indazol-5-yl)-3-methyl-3,7-dihydro-4H-pyrrolo[2,3-d]pyrimidin-4-one]
SHP2
  IC50: 2.8 nM

## CCn1cc2c(Cl)c(-c3c[nH]c4nc(N5[C@H]6CC[C@@H]5[C@H](N)C6)n(C)c(=O)c34)ccc2n1 [Compound 7, 2-((1R,2R,4S)-2-amino-7-azabicyclo[2.2.1]heptan-7-yl)-5-(4-chloro-2-ethyl-2H-indazol-5-yl)-3-methyl-3,7-dihydro-4H-pyrrolo[2,3-d]pyrimidin-4-one]
SHP2
  IC50: 3.3 nM

## NC1(c2ccc(-c3nc4ccn5c(=O)[nH]nc5c4cc3-c3ccccc3)cc2)CCC1 [MK-2206, 8-[4-(1-aminocyclobutyl)phenyl]-9-phenyl-1,2,4-triazolo[3,4-f][1,6]naphthyridin-3(2H)-one]
MKN45; [1]
  CI: 0.315
  Fa: 0.1506
MKN45; [2]
  CI: 0.564
  Fa: 0.1981
MKN45; [3]
  CI: 0.408
  Fa: 0.3872
MKN45; [4]
  CI: 0.383
  Fa: 0.5869
MKN45; [5]
  CI: 0.420
  Fa: 0.7489
MKN45; [6]
  CI: 0.608
  Fa: 0.8398
MKN45; Compound 1:combination drug molar ratio 1:27
  Description (combinatory effect by CI): Synergy (0.3-0.7)
NCI-H358; [7]
  CI: 0.477
  Fa: 0.2532
NCI-H358; [8]
  CI: 0.204
  Fa: 0.4838
NCI-H358; [9]
  CI: 0.301
  Fa: 0.5761
NCI-H358; [10]
  CI: 0.213
  Fa: 0.7446
NCI-H23; [11]
  CI: 0.783
  Fa: 0.1015
NCI-H23; [7]
  CI: 0.265
  Fa: 0.2110
NCI-H23; [8]
  CI: 0.232
  Fa: 0.3486
NCI-H23; [9]
  CI: 0.295
  Fa: 0.5074
NCI-H23; [10]
  CI: 0.340
  Fa: 0.7061
MV-4-11; [12]
  CI: 0.315
  Fa: 0.2639
MV-4-11; [13]
  CI: 0.520
  Fa: 0.3899
MV-4-11; [14]
  CI: 0.446
  Fa: 0.6851
MV-4-11; [15]
  CI: 0.318
  Fa: 0.9006
MV-4-11; [16]
  CI: 0.137
  Fa: 0.9846
RMG-I; [12]
  CI: 0.724
  Fa: 0.1204
RMG-I; [13]
  CI: 0.398
  Fa: 0.2545
RMG-I; [14]
  CI: 0.314
  Fa: 0.4133
RMG-I; [15]
  CI: 0.320
  Fa: 0.5593
RMG-I; [16]
  CI: 0.353
  Fa: 0.6868
RMG-I; Compound 1:combination drug molar ratio 1:81
  Description (combinatory effect by CI): Synergy (0.3-0.7)

From US20230146795A1, “ENHANCEMENT OF ANTI-TUMOR ACTIVITY OF SHP2 INHIBITOR PYRIMIDINONE IN COMBINATION WITH NOVEL CANCER MEDICINES IN CANCERS” (TAIHO PHARMACEUTICAL CO., LTD., priority 2020, published 2023)
